From patent US20050130983A1, “Pyrrolopyrimidinone derivatives, process for preparation thereof, and method of using and composition comprising them” (priority 2002, published 2005)

SMILES	melting point [°C]
CCCOc1ccc(S(=O)(=O)N2CCN(CCOC(=O)CC)CC2)cc1-c1nc2c(CCC)cn(CC)c2c(=O)[nH]1 [Example 10, 5-Ethyl-2-{5-[4-(2-propionyloxyethyl)piperazin-1-ylsulfonyl]-2-n-propoxyphenyl}-7-n-propyl-3,5-dihydro-4H-pyrrolo[3,2-d]pyrimidin-4-one]	126.5 to 127.5
CCCc1cn(C)c2c(=O)[nH]c(-c3cc(S(=O)(=O)N4CCN(CCCOC(C)=O)CC4)ccc3OCC)nc12 [Example 6, 2-{5-[4-(3-Acetoxypropyl)piperazin-1-ylsulfonyl]-2-ethoxyphenyl}-5-methyl-7-n-propyl-3,5-dihydro-4H-pyrrolo[3,2-d]pyrimidin-4-one]	157 to 158.5
CCCOc1ccc(S(=O)(=O)N2CCN(CCOC(C)=O)CC2)cc1-c1nc2c(CCC)cn(CC)c2c(=O)[nH]1 [Example 7, 2-{5-[4-(2-Acetoxyethyl)piperazin-1-ylsulfonyl]-2-n-propoxyphenyl}-5-ethyl-7-n-propyl-3,5-dihydro-4H-pyrrolo[3,2-d]pyrimidin-4-one]	139 to 140
CCCOc1ccc(S(=O)(=O)N2CCN(CCOC(C)=O)CC2)cc1-c1nc2c(CCCF)cn(CC)c2c(=O)[nH]1 [Example 19, 2-{5-[4-(2-Acetoxyethyl)piperazin-1-ylsulfonyl]-2-n-propoxyphenyl}-5-ethyl-7-(3-fluoropropyl)-3,5-dihydro-4H-pyrrolo[3,2-d]pyrimidin-4-one]	134 to 135

The remaining lines, values ahead:

melting point [°C]	SMILES
71.5 to 73	CCCOc1ccc(S(=O)(=O)N2CCN(CCOC(=O)CCC)CC2)cc1-c1nc2c(CCC)cn(CC)c2c(=O)[nH]1 [Example 12, 2-{5-[4-(2-Butyryloxyethyl)piperazin-1-ylsulfonyl]-2-n-propoxyphenyl}-5-ethyl-7-n-propyl-3,5-dihydro-4H-pyrrolo[3,2-d]pyrimidin-4-one]
135 to 136	CCCOc1ccc(S(=O)(=O)N2CCN(CCOC(=O)OCC)CC2)cc1-c1nc2c(CCC)cn(CC)c2c(=O)[nH]1 [Example 17, 2-{5-[4-(2-Ethoxycarbonyloxyethyl)piperazin-1-ylsulfonyl]-2-n-propoxyphenyl}-5-ethyl-7-n-propyl-3,5-dihydro-4H-pyrrolo[3,2-d]pyrimidin-4-one]
88 to 89	CCCOc1ccc(S(=O)(=O)N2CCN(CCOC(=O)C(C)C)CC2)cc1-c1nc2c(CCC)cn(CC)c2c(=O)[nH]1 [Example 14, 5-Ethyl-2-{5-[4-(2-isobutyryloxyethyl)piperazin-1-ylsulfonyl]-2-n-propoxyphenyl}-7-n-propyl-3,5-dihydro-4H-pyrrolo[3,2-d]pyrimidin-4-one]
78 to 79	CCCOc1ccc(S(=O)(=O)N2CCN(CCOC(=O)c3ccccc3)CC2)cc1-c1nc2c(CCC)cn(CC)c2c(=O)[nH]1 [Example 16, 2-{5-[4-(2-Benzoyloxyethyl)piperazin-1-ylsulfonyl]-2-n-propoxyphenyl}-5-ethyl-7-n-propyl-3,5-dihydro-4H-pyrrolo[3,2-d]pyrimidin-4-one]
